Measured values reported in patent publication US10112939B2, “Tied-back benzamide derivatives as potent rock inhibitors” (Bristol-Myers Squibb Company, priority 2014, dated 2018).
pIC50: −log10 of the molar value. Where “and” joins values, the source holds several entries; their conditions need not be identical. Identical values can stand only once.

Target: ROCK2 (Homo sapiens (Human), UniProt O75116)
Assay: ROCK assay (peptide substrate phosphorylation, LABCHIP 3000 Reader)
Assay type: biochemical
Conditions: not given
Method: Compounds were dissolved in DMSO so that the final concentration of DMSO was <2%, and the reaction was initiated with Rho kinase variants. After incubation, the reaction was terminated by the addition of EDTA and the phosphorylated and non-phosphorylated peptides separated using a LABCHIP® 3000 Reader (Caliper Life Sciences). […] Compounds were tested in dose-response format, and the inhibition of kinase activity was calculated at each concentration of compound.

Sequence of ROCK2 (O75116 whole entry, species assumed): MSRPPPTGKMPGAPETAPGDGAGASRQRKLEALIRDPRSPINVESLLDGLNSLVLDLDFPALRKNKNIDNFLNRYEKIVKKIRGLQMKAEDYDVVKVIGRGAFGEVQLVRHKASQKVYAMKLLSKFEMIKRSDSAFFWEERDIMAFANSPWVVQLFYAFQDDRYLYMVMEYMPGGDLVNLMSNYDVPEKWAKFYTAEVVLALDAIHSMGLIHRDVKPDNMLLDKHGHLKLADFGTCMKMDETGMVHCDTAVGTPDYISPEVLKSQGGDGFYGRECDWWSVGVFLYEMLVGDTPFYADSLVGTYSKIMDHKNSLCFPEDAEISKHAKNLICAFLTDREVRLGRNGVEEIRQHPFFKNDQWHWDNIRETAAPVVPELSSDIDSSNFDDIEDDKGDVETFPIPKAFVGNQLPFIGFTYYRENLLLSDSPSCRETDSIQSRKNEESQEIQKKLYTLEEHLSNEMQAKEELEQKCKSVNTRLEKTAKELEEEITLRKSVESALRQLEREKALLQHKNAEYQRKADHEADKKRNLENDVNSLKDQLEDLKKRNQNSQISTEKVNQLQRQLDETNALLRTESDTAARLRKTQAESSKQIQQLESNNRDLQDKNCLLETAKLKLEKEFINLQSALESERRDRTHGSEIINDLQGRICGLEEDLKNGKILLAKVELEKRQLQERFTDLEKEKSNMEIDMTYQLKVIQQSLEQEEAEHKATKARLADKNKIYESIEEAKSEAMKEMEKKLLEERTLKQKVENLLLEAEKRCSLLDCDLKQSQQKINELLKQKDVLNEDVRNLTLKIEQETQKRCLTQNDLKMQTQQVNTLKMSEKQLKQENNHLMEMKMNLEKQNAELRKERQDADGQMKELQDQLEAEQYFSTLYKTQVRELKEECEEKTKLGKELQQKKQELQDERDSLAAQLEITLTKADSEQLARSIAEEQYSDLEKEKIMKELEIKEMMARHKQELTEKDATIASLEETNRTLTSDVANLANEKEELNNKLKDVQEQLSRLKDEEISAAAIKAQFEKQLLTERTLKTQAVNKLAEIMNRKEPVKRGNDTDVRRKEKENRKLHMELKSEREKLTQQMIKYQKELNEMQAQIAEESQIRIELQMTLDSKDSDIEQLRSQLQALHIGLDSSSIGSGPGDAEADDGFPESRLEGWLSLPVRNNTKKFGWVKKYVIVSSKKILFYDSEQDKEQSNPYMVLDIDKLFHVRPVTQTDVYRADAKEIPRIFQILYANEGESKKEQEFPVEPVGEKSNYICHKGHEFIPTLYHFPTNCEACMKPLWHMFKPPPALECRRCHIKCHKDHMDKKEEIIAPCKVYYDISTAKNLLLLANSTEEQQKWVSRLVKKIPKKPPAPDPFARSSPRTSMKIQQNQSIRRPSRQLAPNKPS

SMILES	pIC50
N#Cc1cc(C(=O)N2C[C@H](O)C[C@@H]2c2ccccc2F)ccc1-c1cn[nH]c1 [Example 96, 5-[(2R,4R)-2-(2-Fluorophenyl)-4-hydroxypyrrolidine-1-carbonyl]-2-(1H-pyrazol-4-yl)benzonitrile]	6.18
COc1cc(C(=O)N2CCC[C@@H]2C(=O)N2CCc3ccccc32)ccc1-c1cn[nH]c1 [Example 111, 1-[(2R)-1-[3-Methoxy-4-(1H-pyrazol-4-yl)benzoyl]pyrrolidine-2-carbonyl]-2,3-dihydro-1H-indole]	6.30

Same assay, conditions: 5 μM ATP, 1.5 μM peptide substrate

SMILES	pIC50
COc1cc(C(=O)N2CC(OC)C[C@@H]2c2cccc(C(=O)N(C)CC3CC3)c2)ccc1-c1cn[nH]c1 (stereo partly drawn) [Example 87, N-(Cyclopropylmethyl)-3-[(2R)-4-methoxy-1-[3-methoxy-4-(1H-pyrazol-4-yl)benzoyl]pyrrolidin-2-yl]-N-methylbenzamide]	6.34
COc1cc(C(=O)N2CC(OC(C)=O)C[C@@H]2c2cccc(S(C)(=O)=O)c2)ccc1-c1cn[nH]c1 (stereo partly drawn) [Example 89, (5R)-5-(3-Methanesulfonylphenyl)-1-[3-methoxy-4-(1H-pyrazol-4-yl)benzoyl]pyrrolidin-3-yl acetate]	6.11
O=C(c1ccc(-c2cn[nH]c2)c(OC(F)F)c1)N1C[C@@H](O)C[C@@H]1c1ccccc1F [Example 95, (3S,5R)-1-[3-(Difluoromethoxy)-4-(1H-pyrazol-4-yl)benzoyl]-5-(2-fluorophenyl)pyrrolidin-3-ol]	7.36 and 7.55
N#Cc1cc(C(=O)N2C[C@H](O)C[C@@H]2c2ccccc2F)ccc1-c1cn[nH]c1 [Example 97, 5-[(2R)-2-(2-Fluorophenyl)-4-hydroxypyrrolidine-1-carbonyl]-2-(1H-pyrazol-4-yl)benzonitrile]	6.14
COc1cc(-c2cn[nH]c2)ccc1C(=O)N1C[C@H](O)C[C@@H]1c1ccccc1F [Example 98, (3R,5R)-5-(2-Fluorophenyl)-1-[2-methoxy-4-(1H-pyrazol-4-yl)benzoyl] pyrrolidin-3-ol]	6.14
CS(=O)(=O)c1cccc([C@H]2CC(O)CN2C(=O)c2ccc(-c3ccnc4[nH]ccc34)cc2)c1 (stereo partly drawn) [Example 99, (5R)-5-(3-methanesulfonyl-phenyl)-1-(4-{1H-pyrrolo [2,3-b]pyridin-4-yl}benzoyl) pyrrolidin-3-ol]	6.21
COc1cc(C(=O)N2CCCC2c2cccc(OC3CCN(C)CC3)c2)ccc1-c1cn[nH]c1 (stereo not shown) [Example 104, 4-(3-{1-[3-Methoxy-4-(1H-pyrazol-4-yl)benzoyl]pyrrolidin-2-yl}phenoxy)-1-methylpiperidine]	5.86
COc1cc(C(=O)N2CC(O)C[C@@H]2c2ccc3c(I)n[nH]c3c2)ccc1-c1cn[nH]c1 (stereo partly drawn) [Example 109, (5R)-5-(3-Iodo-1H-indazol-6-yl)-1-[3-methoxy-4-(1H-pyrazol-4-yl)benzoyl]pyrrolidin-3-ol]	6.04
COc1cc(C(=O)N2CCC[C@@H]2C(=O)Nc2ccccc2)ccc1-c1cn[nH]c1 [Example 110, (2R)-1-[3-Methoxy-4-(1H-pyrazol-4-yl)benzoyl]-N-phenylpyrrolidine-2-carboxamide]	6.33

Other lines, results leading:

pIC50	SMILES
7.62	COc1cccc(C2CCCN2C(=O)c2ccc(-c3ccncc3F)c(OC)c2)c1 (stereo not shown) [Example 84, 3-fluoro-4-{2-methoxy-4-[2-(3-methoxyphenyl)pyrrolidine-1-carbonyl]phenyl}pyridine]
8.27	COc1cc(C(=O)N2CC(OC)C[C@@H]2c2cccc(C(=O)NCC3CC3)c2)ccc1-c1cn[nH]c1 (stereo partly drawn) [Example 86, N-(Cyclopropylmethyl)-3-[(2R)-4-methoxy-1-[3-methoxy-4-(1H-pyrazol-4-yl)benzoyl]pyrrolidin-2-yl]benzamide]
7.97	COc1cc(C(=O)N2C[C@](C)(O)C[C@@H]2c2cccc(C(=O)NCC3CC3)c2)ccc1-c1cn[nH]c1 [Example 88, N-(Cyclopropylmethyl)-3-[(2R,4R)-4-hydroxy-1-[3-methoxy-4-(1H-pyrazol-4-yl)benzoyl]-4-methylpyrrolidin-2-yl]benzamide]
7.07	COc1cc(C(=O)N2CC(O)C[C@@H]2c2cccc(S(C)(=O)=O)c2)ccc1-c1cn[nH]c1 (stereo partly drawn) [Example 90, (5R)-5-(3-Methanesulfonylphenyl)-1-[3-methoxy-4-(1H-pyrazol-4-yl)benzoyl]pyrrolidin-3-ol]
8.10	COc1cc(C(=O)N2C[C@H](O)C[C@@H]2c2ccccc2F)ccc1-c1cn[nH]c1 [Example 92, (3R,5R)-5-(2-Fluorophenyl)-1-[3-methoxy-4-(1H-pyrazol-4-yl)benzoyl] pyrrolidin-3-ol]
8.34	COc1cc(C(=O)N2C[C@@H](O)C[C@@H]2c2ccccc2F)ccc1-c1cn[nH]c1 [Example 93, (3S,5R)-5-(2-Fluorophenyl)-1-[3-methoxy-4-(1H-pyrazol-4-yl)benzoyl] pyrrolidin-3-ol]
7.13	O=C(c1ccc(-c2cn[nH]c2)c(OC(F)F)c1)N1C[C@H](O)C[C@@H]1c1ccccc1F [Example 94, (3R,5R)-1-[3-(Difluoromethoxy)-4-(1H-pyrazol-4-yl)benzoyl]-5-(2-fluorophenyl)pyrrolidin-3-ol]
6.64	COc1cccc(C2CCCN2C(=O)c2ccc(-c3cn[nH]c3)c(C(C)O)c2)c1 (stereo not shown) [Example 100, 1-{5-[2-(3-Methoxyphenyl)pyrrolidine-1-carbonyl]-2-(1H-pyrazol-4-yl)phenyl}ethan-1-ol]
7.19	CCc1cc(C(=O)N2CC(O)C[C@@H]2c2ccccc2F)ccc1-c1cn[nH]c1 (stereo partly drawn) [Example 101, (5R)-1-[3-Ethyl-4-(1H-pyrazol-4-yl)benzoyl]-5-(2-fluorophenyl) pyrrolidin-3-ol]
6.39	COc1cc(C(=O)N2CCCC2c2cccc(OCC(F)F)c2)ccc1-c1cn[nH]c1 (stereo not shown) [Example 102, 4-(4-{2-[3-(2,2-Difluoroethoxy)phenyl]pyrrolidine-1-carbonyl}-2-methoxyphenyl)-1H-pyrazole]
7.21	COc1cc(C(=O)N2CCCC2c2cccc(OCc3cc(C)on3)c2)ccc1-c1cn[nH]c1 (stereo not shown) [Example 103, 3-(3-{1-[3-Methoxy-4-(1H-pyrazol-4-yl)benzoyl]pyrrolidin-2-yl}phenoxymethyl)-5-methyl-1,2-oxazole]
6.56	COc1cc(C(=O)N2CCCC2c2cccc(NC3CCN(C)CC3)c2)ccc1-c1cn[nH]c1 (stereo not shown) [Example 105, N-(3-{1-[3-Methoxy-4-(1H-pyrazol-4-yl)benzoyl]pyrrolidin-2-yl}phenyl)-1-methylpiperidin-4-amine]
9.06	COc1cc(C(=O)N2C[C@@H](N)C[C@@H]2c2ccccc2F)ccc1-c1cn[nH]c1 [Example 106, (3S,5R)-5-(2-Fluorophenyl)-1-[3-methoxy-4-(1H-pyrazol-4-yl)benzoyl] pyrrolidin-3-amine]
8.78	COc1cc(C(=O)N2C[C@H](N)C[C@@H]2c2ccccc2F)ccc1-c1cn[nH]c1 [Example 107, (3R,5R)-5-(2-Fluorophenyl)-1-[3-methoxy-4-(1H-pyrazol-4-yl)benzoyl] pyrrolidin-3-amine]
8.12	COc1cc(C(=O)N2CC(O)C[C@@H]2c2ccc3cn[nH]c3c2)ccc1-c1cn[nH]c1 (stereo partly drawn) [Example 108, (5R)-5-(1H-Indazol-6-yl)-1-[3-methoxy-4-(1H-pyrazol-4-yl)benzoyl] pyrrolidin-3-ol]
7.82	CCNS(=O)(=O)c1cccc([C@H]2CCCN2C(=O)c2ccc(-c3cn[nH]c3)c(OC)c2)c1 [Example 112, N-Ethyl-3-[(2R)-1-[3-methoxy-4-(1H-pyrazol-4-yl)benzoyl]pyrrolidin-2-yl]benzene-1-sulfonamide]

System: Dahl salt-sensitive rats
Assay: not given
Conditions: rat, in vivo; cited from earlier work

SMILES	ventricular hypertrophy, fibrosis and function
C[C@@H](N)[C@H]1CC[C@H](C(=O)Nc2ccncc2)CC1 [Example Y-27632, Y-27632]	improve ventricular hypertrophy, fibrosis and function

System: rat stroke model
Assay: not given
Conditions: in vivo; cited from earlier work

SMILES	infarct size and neurologic deficit
O=S(=O)(c1cccc2cnccc12)N1CCCNCC1 [fasudil]	reduce both the infarct size and neurologic deficit

System: spontaneously hypertensive rat, renal hypertensive rat and deoxycortisone acetate salt hypertensive rat models
Assay: not given
Conditions: control rats; cited from earlier work

SMILES	blood pressure
C[C@@H](N)[C@H]1CC[C@H](C(=O)Nc2ccncc2)CC1 [Example Y-27632, Y-27632]	only a minor effect on blood pressure

Same assay, conditions: three rat models of hypertension; cited from earlier work

SMILES	blood pressure
C[C@@H](N)[C@H]1CC[C@H](C(=O)Nc2ccncc2)CC1 [Example Y-27632, Y-27632]	significantly decrease blood pressure

System: neointimal formation in rats
Assay: not given
Conditions: balloon injury model; cited from earlier work

SMILES	neointimal formation
C[C@@H](N)[C@H]1CC[C@H](C(=O)Nc2ccncc2)CC1 [Example Y-27632, Y-27632]	inhibited neointimal formation

System: IL-1 beta-induced coronary stenosis
Assay: not given
Conditions: long term treatment; cited from earlier work

SMILES	coronary constrictive remodeling	coronary stenosis
O=S(=O)(c1cccc2cnccc12)N1CCCNCC1 [fasudil]	promote a regression of coronary constrictive remodeling	progressively reduce coronary stenosis
